Measured values taken from patent publication US20230146455A1, “TREATMENT OF INFLAMMATORY DISEASES WITH PEPTIDES AND PHARMACEUTICAL COMPOSITIONS” (Yuyu Pharma, Inc., priority 2020, published 2023).
Several values for one entry are separate records, joined by “and”; a condition that tells them apart may be missing. Equal entries are not always repeated. Where a SMILES comes first, the peptide text is derived from it. [ ]: non-standard residue; d: D form. Hyp = O=C(O)[C@@H]1C[C@@H](O)CN1

Tested on: IL-1 beta/IL-1F2
Assay: Example 9 Luminex, LPS hPBMCs: IL-1 beta/IL-1F2
Format: cell-based, human
Experimental: Treatment Human PBMCs were pretreated with YY-101, YDE-011 and YDE-043 or reference compound; Xiidra® at various concentration (ranging from 1 nM to 100 uM) for 2 h before stimulation. An equal volume of 0.5% DMSO was used as a vehicle control. Then, the cells were treated with LPS at 5 ug/ml. The supernatants from treated cells were harvested at 24 h and placed in a 96 well for Luminex cytokine & chemokine profiling using a Luminex 200 multiplex assay (Luminex; R&D system, USA).
The main study arm with triplicate wells per group in a 24-well plate: • 1. Blank • 2. PBMC: 0.5% DMSO • 3. PBMC+LPS (5 ug/ml) • 4. PBMC+YY-101 100 uM • 5. PBMC+YY-101 10 uM • 6. PBMC+YY-101 1 uM • 7. PBMC+YY-101 0.1 uM • 8. PBMC+YY-101 0.01 uM • 9. PBMC+LPS (5 ug/ml)+Xiidra®100 uM • 10. PBMC+LPS (5 ug/ml)+Xiidra® 10 uM • 11. PBMC+LPS (5 ug/ml)+Xiidra® 1 uM • 12. PBMC+LPS (5 ug/ml)+Xiidra®0.1 uM • 13. PBMC+LPS (5 ug/ml)+Xiidra®0.01 uM • 14. PBMC+LPS (5 ug/ml)+Xiidra®0.001 uM • 15. PBMC+LPS (5 ug/ml)+YY-101 100 uM • 16. PBMC+LPS (5 ug/ml)+YY-101 10 uM • 17. PBMC+LPS (5 ug/ml)+YY-101 1 uM • 18. PBMC+LPS (5 ug/ml)+YY-101 0.1 uM • 19. PBMC+LPS (5 ug/ml)+YY-101 0.01 uM • 20. PBMC+LPS (5 ug/ml)+YY-101 0.001 uM • 21. PBMC+LPS (5 ug/ml)+YDE-011 100 uM • 22. PBMC+LPS (5 ug/ml)+YDE-011 10 uM • 23. PBMC+LPS (5 ug/ml)+YDE-011 1 uM • 24. PBMC+LPS (5 ug/ml)+YDE-011 0.1 uM • 25. PBMC+LPS (5 ug/ml)+YDE-011 0.01 uM • 26. PBMC+LPS (5 ug/ml)+YDE-011 0.001 uM • 27. PBMC+LPS (5 ug/ml)+YDE-043 100 uM • 28. PBMC+LPS (5 ug/ml)+YDE-043 10 uM • 29. PBMC+LPS (5 ug/ml)+YDE-043 1 uM • 30. PBMC+LPS (5 ug/ml)+YDE-043 0.1 uM • 31. PBMC+LPS (5 ug/ml)+YDE-043 0.01 uM • 32. PBMC+LPS (5 ug/ml)+YDE-043 0.001 uM
Multiplex assay was used to measure 30 cytokines and chemokines. The 1:2, 1:10 and 1:200 diluted cell supernatant and serial dilution of the standard were dispensed into a 96 well plate at 50 ul/well. Then, the pre-mixed cocktail of antibody-coated magnetic beads was dispensed at 50 ul/well and incubated at room temperature for 2 h in a horizontal orbital microplate shaker at 800±500 rpm. The beads were washed using a magnetic device to prevent loss. The biotin-antibody was dispensed in 50 ul of each well and incubated at room temperature for 1 h in a shaker at 800±500 rpm. After washing, streptavidin-PE was added at 50 ul/well and incubated at room temperature for 30 min in a shaker under the same conditions. Finally, after washing, wash buffer (100 ul/well) was added to the plate and incubated in a shaker for 2 min. The Luminex™ 200 setting were set according to the manufacturer's protocol. The data was calculated with a standard five-parameter logistic nonlinear regression analysis of the data (xPonent software 4.2, USA). The levels of cytokine/chemokine are normalized to the live cell counts (1×10^5 cells/mL) and presented as concentrations per mL (pg/mL or ng/mL).

[1] = PBMC + LPS(5 ug/ml) + test article 0.001 uM, Mean
[2] = PBMC + LPS(5 ug/ml) + test article 0.001 uM, single replicates
[3] = PBMC + LPS(5 ug/ml) + test article 0.01 uM, Mean
[4] = PBMC + LPS(5 ug/ml) + test article 0.01 uM, single replicates
[5] = PBMC + LPS(5 ug/ml) + test article 0.1 uM, Mean
[6] = PBMC + LPS(5 ug/ml) + test article 0.1 uM, single replicates
[7] = PBMC + LPS(5 ug/ml) + test article 1 uM, Mean
[8] = PBMC + LPS(5 ug/ml) + test article 1 uM, single replicates
[9] = PBMC + LPS(5 ug/ml) + test article 10 uM, Mean
[10] = PBMC + LPS(5 ug/ml) + test article 10 uM, single replicates
[11] = PBMC + LPS(5 ug/ml) + test article 100 uM, Mean
[12] = PBMC + LPS(5 ug/ml) + test article 100 uM, single replicates

## CC(C)C[C@H](NC(=O)CNC(=O)[C@H](CC(C)C)NC(=O)[C@H](CCC(N)=O)NC(=O)CNC(=O)[C@@H]1C[C@@H](O)CN1)C(=O)N[C@@H](C)C(=O)NCC(=O)N1CCC[C@H]1C(=O)N[C@@H](CCCCN)C(=O)O [YDE-011] (H-[Hyp]GQLGLAGPK-OH)
[1]
  Concentration: 6481.9 pg/mL
  MFI: 1671.0
  conc/live cell: 1225.5 pg/10^5
[2]
  Concentration: 6498.5 pg/mL and 6544.6 pg/mL and 6402.7 pg/mL
  MFI: 1675.5 and 1688.0 and 1649.5
  conc/live cell: 1444.1 pg/10^5 and 1128.4 pg/10^5 and 1103.9 pg/10^5
[3]
  Concentration: 6567.3 pg/mL
  MFI: 1694.2
  conc/live cell: 1128.7 pg/10^5
[4]
  Concentration: 6557.5 pg/mL and 6476.4 pg/mL and 6668.1 pg/mL
  MFI: 1691.5 and 1669.5 and 1721.5
  conc/live cell: 1057.7 pg/10^5 and 1269.9 pg/10^5 and 1058.4 pg/10^5
[5]
  Concentration: 6345.6 pg/mL
  MFI: 1634.0
  conc/live cell: 1115.2 pg/10^5
[6]
  Concentration: 6305.1 pg/mL and 6376.9 pg/mL and 6354.8 pg/mL
  MFI: 1623.0 and 1642.5 and 1636.5
  conc/live cell: 955.3 pg/10^5 and 1275.4 pg/10^5 and 1114.9 pg/10^5
[7]
  Concentration: 6587.0 pg/mL
  MFI: 1699.5
  conc/live cell: 1314.4 pg/10^5
[8]
  Concentration: 6553.8 pg/mL and 6454.2 pg/mL and 6753.1 pg/mL
  MFI: 1690.5 and 1663.5 and 1744.5
  conc/live cell: 1191.6 pg/10^5 and 1344.6 pg/10^5 and 1406.9 pg/10^5
[9]
  Concentration: 6933.0 pg/mL
  MFI: 1793.2
  conc/live cell: 1319.4 pg/10^5
[10]
  Concentration: 7010.0 pg/mL and 6782.6 pg/mL and 7006.3 pg/mL
  MFI: 1814.0 and 1752.5 and 1813.0
  conc/live cell: 1298.1 pg/10^5 and 1169.4 pg/10^5 and 1490.7 pg/10^5
[11]
  Concentration: 8675.0 pg/mL
  MFI: 2260.0
  conc/live cell: 1430.0 pg/10^5
[12]
  Concentration: 8497.8 pg/mL and 8918.4 pg/mL and 8608.8 pg/mL
  MFI: 2213.0 and 2324.5 and 2242.5
  conc/live cell: 1393.1 pg/10^5 and 1462.0 pg/10^5 and 1434.8 pg/10^5
